Patent US9249147B2, “Tyrosine kinase inhibitors” (CHEMBRIDGE CORPORATION, priority 2008, dated 2016)

How the values were obtained:
[1] = target: T1, IGF1R (Homo sapiens, UniProt P08069); assay: IGF1R kinase assay; type: biochemical; details: Table 1; read-out: IGF1R IC50
T1 construct: 6×His- or GST-tagged kinase domain fragments of the corresponding RTKs expressed in baculovirus system; host or cells: baculovirus system
Experimental: To determine inhibition of several tyrosine kinases, such as IGF1R, InsR, Alk, TrkA and Jak2, kinase assays are conducted using either Kinase-Glo (Promega) or AlphaScreen (PerkinElmer) kinase assay platforms. The Kinase-Glo Luminescent Kinase Assay is a homogeneous method for measuring kinase activity by determining the amount of ATP remaining after a kinase reaction. The luminescent signal is proportional to the amount of ATP and inversely proportional to the amount of kinase activity. Tyrosine kinase PT66 AlphaScreen Assay is a high-sensitivity homogeneous, anti-phosphotyrosine antibody-mediated luminescent proximity method measuring incorporation of phosphate in synthetic poly(Glu-Tyr) substrate. The kinase preparations used consist of purified recombinant, 6×His- or GST-tagged kinase domain fragments of the corresponding RTKs expressed in baculovirus system.
Compounds with a range of concentrations 40 μM, 20 μM, 10 μM, 5 μM, 2.5 μM, 1.25 μM, 0.625 μM, 0.3125 μM, 0.15625 μM and 0.078125 μM were incubated with NPM-ALK, which was produced in insect cells as a 6×HIS-tagged fusion protein and purified using nickel-charged resin chromatography, for 30 minutes at RT in the presence of 10 μM ATP and 7.0 ng biotinylated poly-GT. A 1:1 mixture of […] and donor beads was then added to the reaction and incubated for an additional 60 minutes at RT. The assay was conducted on a MultiPROBE liquid handling workstation (PerkinElmer) in a 384-well plate format with a total reaction volume of 40 μL per well. Working stocks of all compounds were dissolved in 100% DMSO and serial dilutions of the compounds were performed using kinase buffer (50 mM Tris-HCl (pH 7.5), 5 mM MgCl2, 5 mM MnCl2, 2 mM DTT (added freshly before use), 0.01% Tween-20) containing 5% DMSO. […] Data were collected as optical readings at 520-680 nm on a Fusion™ microplate analyzer (PerkinElmer), and IC50 and Ki values calculated using PRISM3.0 software (GraphPad Software, Inc., San Diego, Calif.). The same assay was also used with minor modifications to assess the IC50 and Ki values for selected compounds against five other tyrosine kinases (IRK, IGF1R, Flt3, Abl, Src), all of which were purchased from commercial vendors. PolyGT-Biotin was bought from CIS Biointernational Cat. #61GT0BLD; ATP—from Sigma Cat. # A7699; sodium orthovanadate—from Sigma Cat. #S-6508; phosphotyrosine (PT66) assay kit from PerkinElmer Cat. #6760602M; automated workstation tips (20 μL): PerkinElmer Cat. #6000657; and OptiPlate-384 (white)—from PerkinElmer Cat. #6007299.

[2] = target: ALK (Homo sapiens, UniProt Q9UM73); assay: ALK kinase assay (Kinase-Glo / AlphaScreen, purified NPM-ALK); type: biochemical; parameters: fused to the complete intracytoplasmic portion of ALK containing the functional tyrosine kinase domain; 6xHis; made in house; host or cells: insect cells; the other entry of the earlier key: NPM1 (P06748, Nucleophosmin); details: Table 1; read-out: ALK IC50
ALK, sequence (Q9UM73 with tags, fused parts or gaps): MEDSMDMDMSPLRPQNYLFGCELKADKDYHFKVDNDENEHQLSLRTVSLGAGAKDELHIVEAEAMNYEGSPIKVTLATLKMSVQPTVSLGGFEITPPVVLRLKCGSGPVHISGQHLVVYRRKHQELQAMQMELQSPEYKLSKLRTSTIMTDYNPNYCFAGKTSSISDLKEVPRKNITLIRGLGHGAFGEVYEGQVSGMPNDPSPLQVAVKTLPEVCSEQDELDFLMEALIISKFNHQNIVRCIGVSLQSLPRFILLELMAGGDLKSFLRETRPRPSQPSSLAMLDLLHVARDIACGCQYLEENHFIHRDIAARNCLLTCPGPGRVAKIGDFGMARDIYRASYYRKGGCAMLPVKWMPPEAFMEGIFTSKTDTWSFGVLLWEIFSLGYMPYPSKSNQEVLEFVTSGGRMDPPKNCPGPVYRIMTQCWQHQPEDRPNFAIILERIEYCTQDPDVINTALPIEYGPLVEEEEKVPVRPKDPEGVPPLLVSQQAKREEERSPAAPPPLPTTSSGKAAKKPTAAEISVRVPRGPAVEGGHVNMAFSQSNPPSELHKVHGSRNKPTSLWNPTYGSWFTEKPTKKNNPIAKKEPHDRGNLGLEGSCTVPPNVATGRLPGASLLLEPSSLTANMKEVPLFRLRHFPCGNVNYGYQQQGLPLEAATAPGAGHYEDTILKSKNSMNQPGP

T1 sequence (P08069 999-1274 limits assumed): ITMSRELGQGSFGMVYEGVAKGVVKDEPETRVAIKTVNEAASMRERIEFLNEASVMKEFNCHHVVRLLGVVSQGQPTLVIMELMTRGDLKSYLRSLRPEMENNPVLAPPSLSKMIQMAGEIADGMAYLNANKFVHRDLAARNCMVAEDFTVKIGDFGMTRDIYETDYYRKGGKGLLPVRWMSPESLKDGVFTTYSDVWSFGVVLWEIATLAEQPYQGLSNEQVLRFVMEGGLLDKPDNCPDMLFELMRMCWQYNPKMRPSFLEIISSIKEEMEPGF

IC50 [1]	IC50 [2]	Compound
250 to 1000 nM	100 to 250 nM	C[C@@H](Cc1sccc1Cl)Nc1cc[nH]c(=O)c1-c1nc2cc3c(cc2[nH]1)C(=O)N(CCN1CCCC1)C3=O
250 to 1000 nM	100 to 250 nM	C[C@H](Nc1cc[nH]c(=O)c1-c1nc2cc3c(cc2[nH]1)C(=O)N(CCCN1CCCC1)C3=O)[C@H](O)c1ccccc1
> 1000 nM	> 1000 nM	CC(Cc1ccc(-c2ccccc2)s1)Nc1cc[nH]c(=O)c1-c1nc2cc3c(cc2[nH]1)C(=O)N(CCCN1CCCC1)C3 (stereo not shown)
> 1000 nM	10 to 100 nM	Cc1ccccc1C[C@H](C)Nc1cc[nH]c(=O)c1-c1nc2cc3c(cc2[nH]1)C(=O)N(CCN1CCCC1)C3=O
> 1000 nM	> 1000 nM	CC(Cc1cc2ccccc2s1)Nc1cc[nH]c(=O)c1-c1nc2cc3c(cc2[nH]1)C(=O)N(CCCN1CCCC1)C3 (stereo not shown)
100 to 250 nM	10 to 100 nM	C[C@@H](Cc1sccc1Cl)Nc1cc[nH]c(=O)c1-c1nc2cc3c(cc2[nH]1)C(=O)N([C@@H](C)CN(C)C)C3
> 1000 nM	> 1000 nM	Cc1noc(C)c1CC(C)Nc1cc[nH]c(=O)c1-c1nc2cc3c(cc2[nH]1)C(=O)N(CCCN1CCCC1)C3=O (stereo not shown)
10 to 100 nM	100 to 250 nM	C[C@@H](Cc1cccs1)Nc1cc[nH]c(=O)c1-c1nc2cc3c(cc2[nH]1)C(=O)N(C1CCN(C)CC1)C3
100 to 250 nM	> 1000 nM	Cc1cc(C)c(CC(C)Nc2cc[nH]c(=O)c2-c2nc3cc4c(cc3[nH]2)C(=O)N(CCCN2CCCC2)C4)s1 (stereo not shown)
250 to 1000 nM	10 to 100 nM	Cc1ccsc1C[C@H](C)Nc1cc[nH]c(=O)c1-c1nc2cc3c(cc2[nH]1)C(=O)N(CCN(C)CCS(C)(=O)=O)C3
> 1000 nM	> 1000 nM	COc1ccc(-c2ccc(CC(C)Nc3cc[nH]c(=O)c3-c3nc4cc5c(cc4[nH]3)C(=O)N(CCCN3CCCC3)C5)s2)cc1 (stereo not shown)
250 to 1000 nM	> 1000 nM	Cc1cc(CC(C)Nc2cc[nH]c(=O)c2-c2nc3cc4c(cc3[nH]2)C(=O)N(CCCN2CCCC2)C4)sc1C (stereo not shown)
250 to 1000 nM	10 to 100 nM	C[C@@H](Cc1sccc1C(F)(F)F)Nc1cc[nH]c(=O)c1-c1nc2cc3c(cc2[nH]1)CN(CCN1CCCC1)C3=O
> 1000 nM	100 to 250 nM	C[C@@H](Cc1cccs1)Nc1cc[nH]c(=O)c1-c1nc2cc3c(cc2[nH]1)C(=O)N(CCCN1CCCC1)C3=O
250 to 1000 nM	100 to 250 nM	C[C@@H](Cc1cccs1)Nc1cc[nH]c(=O)c1-c1nc2cc3c(cc2[nH]1)C(=O)N(CCN1CCCC1)C3=O
250 to 1000 nM	10 to 100 nM	Cc1ccsc1C[C@H](C)Nc1cc[nH]c(=O)c1-c1nc2cc3c(cc2[nH]1)C(=O)N(CC(C)CN1CCCC1)C3 (stereo partly shown)
	> 1000 nM	COC[C@H](Cc1ccccc1)Nc1cc[nH]c(=O)c1-c1nc2cc3c(cc2[nH]1)C(=O)N(C1CCN(C)CC1)C3=O
100 to 250 nM	10 to 100 nM	CCN1CCC[C@H]1CN1Cc2cc3nc(-c4c(N[C@@H](C)Cc5sccc5C)cc[nH]c4=O)[nH]c3cc2C1=O
250 to 1000 nM	100 to 250 nM	Cc1c(F)cc(F)cc1C[C@H](C)Nc1cc[nH]c(=O)c1-c1nc2cc3c(cc2[nH]1)CN(CCN(C)C)C3=O
> 1000 nM	> 1000 nM	Cc1c(C[C@H](C)Nc2cc[nH]c(=O)c2-c2nc3cc4c(cc3[nH]2)CN(CCN(C)C)C4=O)ccc(F)c1F
250 to 1000 nM	< 10 nM	C[C@@H](Cc1sccc1Cl)Nc1cc[nH]c(=O)c1-c1nc2cc3c(cc2[nH]1)C(=O)N(C[C@H](C)N(C)C)C3
	100 to 250 nM	CC(Cc1ccsc1)Nc1cc[nH]c(=O)c1-c1nc2cc3c(cc2[nH]1)C(=O)N(CCCN1CCCC1)C3=O (stereo not shown)
250 to 1000 nM	100 to 250 nM	Cc1ccsc1C[C@H](C)Nc1cc[nH]c(=O)c1-c1nc2cc3c(cc2[nH]1)CN(CCN1CCC[C@@H]1C)C3=O
> 1000 nM	100 to 250 nM	C[C@@H](Cc1cccs1)Nc1cc[nH]c(=O)c1-c1nc2cc3c(cc2[nH]1)C(=O)N(CCCCN1CCCC1)C3
250 to 1000 nM	100 to 250 nM	C[C@@H](Cc1ccccc1F)Nc1cc[nH]c(=O)c1-c1nc2cc3c(cc2[nH]1)CN(CCN1CCCC1)C3=O

IC50 [1]	IC50 [2]	Compound
250 to 1000 nM	250 to 1000 nM	CC(Cc1ccc(Cl)s1)Nc1cc[nH]c(=O)c1-c1nc2cc3c(cc2[nH]1)C(=O)N(CCCN1CCCC1)C3 (stereo not shown)
250 to 1000 nM	250 to 1000 nM	CC(Cc1ccsc1)Nc1cc[nH]c(=O)c1-c1nc2cc3c(cc2[nH]1)C(=O)N(CCCN1CCCC1)C3 (stereo not shown)
250 to 1000 nM	> 1000 nM	Cc1c(F)cc(F)cc1C[C@H](C)Nc1cc[nH]c(=O)c1-c1nc2cc3c(cc2[nH]1)CN(CCN1CCCC1)C3=O
100 to 250 nM	100 to 250 nM	Cc1ccsc1CC(C)Nc1cc[nH]c(=O)c1-c1nc2cc3c(cc2[nH]1)C(=O)N(CCCN1CCCC1)C3 (stereo not shown)
> 1000 nM	100 to 250 nM	Cc1ccsc1C[C@H](C)Nc1cc[nH]c(=O)c1-c1nc2cc3c(cc2[nH]1)C(=O)N(CCN(C)CCS(C)(=O)=O)C3=O
	> 1000 nM	COC[C@@H](Cc1ccccc1)Nc1cc[nH]c(=O)c1-c1nc2cc3c(cc2[nH]1)C(=O)N(C1CCN(C)CC1)C3=O
250 to 1000 nM	250 to 1000 nM	Cc1csc(CC(C)Nc2cc[nH]c(=O)c2-c2nc3cc4c(cc3[nH]2)C(=O)N(CCCN2CCCC2)C4)c1 (stereo not shown)
> 1000 nM	> 1000 nM	Cc1noc(C)c1CC(C)Nc1cc[nH]c(=O)c1-c1nc2cc3c(cc2[nH]1)C(=O)N(CCCN1CCCC1)C3 (stereo not shown)
	> 1000 nM	CCC(Cc1cccs1)Nc1cc[nH]c(=O)c1-c1nc2cc3c(cc2[nH]1)C(=O)N(CCCN1CCCC1)C3 (stereo not shown)
10 to 100 nM	250 to 1000 nM	CNCCN1Cc2cc3[nH]c(-c4c(N[C@@H](C)Cc5cc(F)ccc5C)cc[nH]c4=O)nc3cc2C1=O [drawing 348]
250 to 1000 nM	250 to 1000 nM	C[C@@H](Cc1cc(F)cc(F)c1F)Nc1cc[nH]c(=O)c1-c1nc2cc3c(cc2[nH]1)CN(CCN1CCCC1)C3
	250 to 1000 nM	CCC(Cc1cccs1)Nc1cc[nH]c(=O)c1-c1nc2cc3c(cc2[nH]1)C(=O)N(CCCN1CCCC1)C3=O (stereo not shown)
100 to 250 nM	10 to 100 nM	C[C@H](CN(C)C)N1Cc2cc3nc(-c4c(N[C@@H](C)Cc5sccc5Cl)cc[nH]c4=O)[nH]c3cc2C1=O
250 to 1000 nM	> 1000 nM	C[C@H](Cc1cccs1)Nc1cc[nH]c(=O)c1-c1nc2c(Cl)c3c(cc2[nH]1)C(=O)N(C1CCN(C)CC1)C3
> 1000 nM	> 1000 nM	Cc1c(C[C@H](C)Nc2cc[nH]c(=O)c2-c2nc3cc4c(cc3[nH]2)CN(CCN2CCCC2)C4=O)ccc(F)c1F
> 1000 nM	10 to 100 nM	C[C@@H](Cc1sccc1Cl)Nc1cc[nH]c(=O)c1-c1nc2cc3c(cc2[nH]1)C(=O)N([C@@H](C)CN(C)C)C3=O
> 1000 nM	10 to 100 nM	C[C@@H](Cc1sccc1Cl)Nc1cc[nH]c(=O)c1-c1nc2cc3c(cc2[nH]1)C(=O)N(C[C@H](C)N(C)C)C3=O
100 to 250 nM	> 1000 nM	Cc1ccc(CC(C)Nc2cc[nH]c(=O)c2-c2nc3cc4c(cc3[nH]2)C(=O)N(CCCN2CCCC2)C4)s1 (stereo not shown)
250 to 1000 nM	100 to 250 nM	CC(Cc1cccs1)Nc1cc[nH]c(=O)c1-c1nc2cc3c(cc2[nH]1)CN(CCCN1CCCC1)C3=O (stereo not shown)
250 to 1000 nM	< 10 nM	C[C@H](CN1Cc2cc3nc(-c4c(N[C@@H](C)Cc5sccc5Cl)cc[nH]c4=O)[nH]c3cc2C1=O)N(C)C
> 1000 nM	100 to 250 nM	C[C@@H](Cc1ccco1)Nc1cc[nH]c(=O)c1-c1nc2cc3c(cc2[nH]1)C(=O)N(CCN1CCCC1)C3=O
> 1000 nM	> 1000 nM	CCc1ccc(CC(C)Nc2cc[nH]c(=O)c2-c2nc3cc4c(cc3[nH]2)C(=O)N(CCCN2CCCC2)C4)s1 (stereo not shown)
250 to 1000 nM	100 to 250 nM	CCN1CCC[C@@H]1CN1Cc2cc3nc(-c4c(N[C@@H](C)Cc5sccc5C)cc[nH]c4=O)[nH]c3cc2C1=O
> 1000 nM	10 to 100 nM	C[C@H](CN1C(=O)c2cc3nc(-c4c(N[C@@H](C)Cc5sccc5Cl)cc[nH]c4=O)[nH]c3cc2C1=O)N(C)C
	> 1000 nM	CN1CCC(N2C(=O)c3cc4nc(-c5c(N[C@H](CO)Cc6ccccc6)cc[nH]c5=O)[nH]c4cc3C2=O)CC1
